The NIST ThermoML archive (doi:10.1021/je200668a)
Several values for one entry are separate records, joined by “and”; a condition that tells them apart may be missing. Equal entries are not always repeated.

Settings: Liquid, Pulse Transmission

O [water]
Settings | speed of sound
288.13 K, 250900 kPa | 1878.5 m/s
288.13 K, 300400 kPa | 1955.1 m/s
288.13 K, 701000 kPa | 2453.9 m/s
288.14 K, 150300 kPa | 1718.5 m/s
288.15 K, 50900 kPa | 1550.1 m/s
288.15 K, 349200 kPa | 2025.9 m/s
288.15 K, 499800 kPa | 2225.2 m/s
288.16 K, 99800 kPa | 1631.8 m/s
288.16 K, 200200 kPa | 1800.9 m/s
288.17 K, 99700 kPa | 1633.2 m/s
288.17 K, 401300 kPa | 2098 m/s
288.17 K, 561300 kPa | 2300.1 m/s
288.17 K, 640700 kPa | 2391.2 m/s
297.74 K, 702200 kPa | 2448.7 m/s
297.78 K, 653200 kPa | 2402.2 m/s
297.79 K, 250300 kPa | 1895.5 m/s
297.79 K, 549700 kPa | 2286.1 m/s
297.8 K, 499500 kPa | 2225.4 m/s
297.82 K, 601700 kPa | 2346.1 m/s
297.83 K, 300300 kPa | 1967.2 m/s
297.84 K, 200200 kPa | 1819.5 m/s
297.88 K, 50600 kPa | 1580.3 m/s
297.88 K, 151000 kPa | 1743.2 m/s
297.89 K, 400300 kPa | 2101.3 m/s
297.9 K, 100 kPa | 1493.8 m/s
297.9 K, 450500 kPa | 2165.2 m/s
297.99 K, 99500 kPa | 1660.6 m/s
298.05 K, 349200 kPa | 2035.4 m/s
298.07 K, 699900 kPa | 2450.3 m/s
298.09 K, 659800 kPa | 2412.6 m/s
298.1 K, 599200 kPa | 2344.5 m/s
298.11 K, 551300 kPa | 2287 m/s
298.12 K, 350600 kPa | 2038.7 m/s
298.15 K, 400500 kPa | 2103.8 m/s
298.15 K, 500000 kPa | 2229.8 m/s
298.16 K, 200800 kPa | 1821.6 m/s
298.16 K, 300500 kPa | 1968.4 m/s
298.18 K, 450300 kPa | 2167.6 m/s
298.2 K, 50100 kPa | 1580.4 m/s
298.24 K, 400400 kPa | 2102.3 m/s
298.27 K, 150700 kPa | 1743.9 m/s
298.28 K, 350900 kPa | 2038.4 m/s
298.29 K, 249200 kPa | 1894.6 m/s
298.3 K, 150800 kPa | 1745 m/s
298.3 K, 299000 kPa | 1965.7 m/s
298.31 K, 100400 kPa | 1662.8 m/s
298.31 K, 250700 kPa | 1897.4 m/s
298.34 K, 50200 kPa | 1580.9 m/s
298.34 K, 199800 kPa | 1820.7 m/s
298.35 K, 100 kPa | 1492.8 m/s
298.36 K, 100400 kPa | 1664.2 m/s
298.37 K, 100 kPa | 1492.2 m/s
298.38 K, 699000 kPa | 2448 m/s
298.41 K, 651700 kPa | 2400.7 m/s
298.42 K, 449900 kPa | 2165.5 m/s
298.43 K, 499700 kPa | 2225.8 m/s
298.43 K, 549200 kPa | 2287.7 m/s
298.45 K, 601800 kPa | 2347.7 m/s
308.06 K, 400400 kPa | 2112.6 m/s
308.07 K, 449300 kPa | 2173.3 m/s
308.08 K, 300500 kPa | 1983.1 m/s
308.09 K, 349400 kPa | 2048.7 m/s
308.09 K, 400000 kPa | 2112.1 m/s
308.09 K, 499500 kPa | 2230.5 m/s
308.09 K, 559700 kPa | 2301.4 m/s
308.09 K, 650800 kPa | 2402.2 m/s
308.09 K, 703600 kPa | 2441.6 m/s
308.1 K, 250500 kPa | 1913.4 m/s
308.1 K, 299900 kPa | 1983.2 m/s
308.1 K, 350900 kPa | 2048.9 m/s
308.1 K, 601700 kPa | 2349.8 m/s
308.1 K, 698500 kPa | 2446.7 m/s
308.11 K, 100 kPa | 1515.3 m/s
308.11 K, 160100 kPa | 1781.2 m/s
308.11 K, 650700 kPa | 2402.3 m/s
308.12 K, 149900 kPa | 1766.1 m/s
308.12 K, 200400 kPa | 1840.6 m/s
308.12 K, 200700 kPa | 1840.1 m/s
308.12 K, 299900 kPa | 1984.1 m/s
308.12 K, 400700 kPa | 2110.8 m/s
308.13 K, 51000 kPa | 1606 m/s
308.13 K, 349800 kPa | 2049.7 m/s
308.13 K, 599600 kPa | 2344.5 m/s
308.14 K, 99700 kPa | 1690.4 m/s
308.14 K, 150300 kPa | 1766.1 m/s
308.14 K, 449900 kPa | 2171.7 m/s
308.14 K, 701600 kPa | 2447.4 m/s
308.15 K, 100 kPa | 1514.3 m/s and 1514.1 m/s
308.15 K, 250800 kPa | 1913.1 m/s
308.15 K, 450900 kPa | 2174.9 m/s
308.15 K, 499400 kPa | 2232.5 m/s
308.16 K, 111000 kPa | 1706.1 m/s
308.16 K, 639800 kPa | 2388.9 m/s
308.17 K, 50300 kPa | 1604.9 m/s
308.17 K, 99800 kPa | 1690 m/s
308.17 K, 200300 kPa | 1839.8 m/s
308.17 K, 549700 kPa | 2292.4 m/s
308.19 K, 250500 kPa | 1913.9 m/s
308.19 K, 549600 kPa | 2291 m/s
308.21 K, 499700 kPa | 2232.3 m/s
308.22 K, 50600 kPa | 1605.5 m/s
308.22 K, 599600 kPa | 2346.6 m/s
318.02 K, 200600 kPa | 1860.6 m/s
318.02 K, 350800 kPa | 2062 m/s
318.06 K, 399700 kPa | 2122.5 m/s
318.07 K, 99500 kPa | 1705.7 m/s
318.09 K, 349600 kPa | 2062.1 m/s
318.1 K, 200400 kPa | 1860.8 m/s
318.1 K, 299400 kPa | 1995.8 m/s
318.1 K, 300100 kPa | 1998.9 m/s
